Drawing on US8022066B2, “2-(2-hydroxyphenyl) benzothiadiazines useful for treating obesity and diabetes” (High Point Pharmaceuticals, LLC, priority 2006, dated 2011), this text covers melting point for one compound.

With `Cc1c(Br)cc(C(C)(C)C)c(O)c1C1=Nc2cc(Cl)ccc2S(=O)(=O)N1` [Example 1, 4-Bromo-6-tert-butyl-2-(6-chloro-1,1-dioxo-1,2-dihydro-1λ^6-benzo[1,2,4]thiadiazin-3-yl)-3-methylphenol], the melting point (in general, the temperature, or range, at which the solid turns liquid) is 270 to 271 °C (dec.).
